What all share (assay type): functional
The test system of one experiment is M14. Put plainly: Cytotoxicity against Homo sapiens (human) M14 cells assessed as growth inhibition at 10 uM after 48 hr by coulter counter analysis. The note with it: M14, 48 h, read-out: GI.
The next experiment concerns LOX IMVI. Put plainly: Cytotoxicity against Homo sapiens (human) LOXIMVI cells assessed as growth inhibition at 10 uM after 48 hr by coulter counter analysis. The note with it: read-out: GI.
In another experiment the test system is SNB-75. Description: Cytotoxicity against Homo sapiens (human) SNB75 cells assessed as growth inhibition at 10 uM after 48 hr by coulter counter analysis. The note with it: SNB-75, 48 h, read-out: GI.
For the next experiment, the system named is SF-295. Put plainly: Cytotoxicity against Homo sapiens (human) SF295 cells assessed as growth inhibition at 10 uM after 48 hr by coulter counter analysis. The following applies: SF-295, 48 h, read-out: GI.
The test system of another experiment is OVCAR-4. Description: Cytotoxicity against Homo sapiens (human) OVCAR4 cells assessed as growth inhibition at 10 uM after 48 hr by coulter counter analysis. The note with it: OVCAR-4, 48 h, read-out: GI.
A further experiment concerns IGROV-1. Put plainly: Cytotoxicity against Homo sapiens (human) IGROV1 cells assessed as growth inhibition at 10 uM after 48 hr by coulter counter analysis. The note with it: IGROV-1, 48 h, read-out: GI.
Another experiment has as its system MDA-MB-468. Put plainly: Cytotoxicity against Homo sapiens (human) MDA-MB-468 cells assessed as growth inhibition at 10 uM after 48 hr by coulter counter analysis. The following applies: MDA-MB-468, 48 h, read-out: GI.
A further experiment deals with Hs-578T. Description: Cytotoxicity against Homo sapiens (human) Hs578T cells assessed as growth inhibition at 10 uM after 48 hr by coulter counter analysis. The following applies: read-out: GI.
A further experiment concerns MDA-MB-231. Description: Cytotoxicity against Homo sapiens (human) MDA-MB-231 cells assessed as growth inhibition at 10 uM after 48 hr by coulter counter analysis. The note with it: MDA-MB-231, 48 h, read-out: GI.
A further experiment relates to MCF7. Description: Cytotoxicity against Homo sapiens (human) MCF7 cells assessed as growth inhibition at 10 uM after 48 hr by coulter counter analysis. The following applies: MCF7, 48 h, read-out: GI.
Another experiment concerns PC-3. Put plainly: Cytotoxicity against Homo sapiens (human) PC3 cells assessed as growth inhibition at 10 uM after 48 hr by coulter counter analysis. The following applies: PC-3, 48 h, read-out: GI.
For a further experiment, the system named is UO-31. Put plainly: Cytotoxicity against Homo sapiens (human) UO31 cells assessed as growth inhibition at 10 uM after 48 hr by coulter counter analysis. The following applies: UO-31, 48 h, read-out: GI.
Another experiment relates to TK-10. Put plainly: Cytotoxicity against Homo sapiens (human) TK10 cells assessed as growth inhibition at 10 uM after 48 hr by coulter counter analysis. The following applies: TK-10, 48 h, read-out: GI.
A further experiment concerns RXF 393. Put plainly: Cytotoxicity against Homo sapiens (human) RXF393 cells assessed as growth inhibition at 10 uM after 48 hr by coulter counter analysis. The following applies: RXF 393, 48 h, read-out: GI.
The subject of the next experiment is CAKI-1. Description: Cytotoxicity against Homo sapiens (human) Caki1 cells assessed as growth inhibition at 10 uM after 48 hr by coulter counter analysis. The note with it: CAKI-1, 48 h, read-out: GI.
The next experiment deals with ACHN. Description: Cytotoxicity against Homo sapiens (human) ACHN cells assessed as growth inhibition at 10 uM after 48 hr by coulter counter analysis. The note with it: read-out: GI.
For another experiment, the system named is 786-0. Description: Cytotoxicity against Homo sapiens (human) 786-0 cells assessed as growth inhibition at 10 uM after 48 hr by coulter counter analysis. The note with it: 786-0, 48 h, read-out: GI.
The next experiment relates to SK-OV-3. Description: Cytotoxicity against Homo sapiens (human) SKOV3 cells assessed as growth inhibition at 10 uM after 48 hr by coulter counter analysis. The note with it: SK-OV-3, 48 h, read-out: GI.
A further experiment relates to OVCAR-8. Put plainly: Cytotoxicity against Homo sapiens (human) OVCAR8 cells assessed as growth inhibition at 10 uM after 48 hr by coulter counter analysis. The following applies: OVCAR-8, 48 h, read-out: GI.
A further experiment concerns SF-268. Put plainly: Cytotoxicity against Homo sapiens (human) SF268 cells assessed as growth inhibition at 10 uM after 48 hr by coulter counter analysis. The following applies: SF-268, 48 h, read-out: GI.
The test system of another experiment is KM12. Description: Cytotoxicity against Homo sapiens (human) KM12 cells assessed as growth inhibition at 10 uM after 48 hr by coulter counter analysis. The note with it: KM12, 48 h, read-out: GI.
The subject of another experiment is HCT-15. Description: Cytotoxicity against Homo sapiens (human) HCT15 cells assessed as growth inhibition at 10 uM after 48 hr by coulter counter analysis. The note with it: HCT-15, 48 h, read-out: GI.
The subject of a further experiment is MOLT-4. Description: Cytotoxicity against Homo sapiens (human) MOLT4 cells assessed as growth inhibition at 10 uM after 48 hr by coulter counter analysis. The note with it: MOLT-4, 48 h, read-out: GI.
The next experiment has as its system UACC-62. Put plainly: Cytotoxicity against Homo sapiens (human) UACC62 cells assessed as growth inhibition at 10 uM after 48 hr by coulter counter analysis. The note with it: UACC-62, 48 h, read-out: GI.

For `O=c1[nH]nnc2c1C(c1ccc(Cl)cc1)C1=C(CCCC1)N2` (centres undefined), the inhibition of growth at 10 µM in the experiment on M14, in the experiment with LOX IMVI, with SNB-75, in the experiment on SF-295, in the experiment with OVCAR-4 and in the experiment on IGROV-1 was under 10% in each case. The inhibition of growth at 10 µM with MDA-MB-468 is 13.3%; with Hs-578T, under 10%; in the experiment with MDA-MB-231 it was under 10%; in the experiment on MCF7, under 10%; in the experiment with PC-3, 10.2%; in the experiment on UO-31, 43.4%. Further, the inhibition of growth at 10 µM is under 10% in the experiment on TK-10; under 10% with RXF 393; 16.1% in the experiment with CAKI-1; under 10% in the experiment with ACHN; under 10% in the experiment on 786-0; under 10% in the experiment on SK-OV-3. Moreover, the inhibition of growth at 10 µM with OVCAR-8, in the experiment with SF-268, in the experiment on KM12, in the experiment with HCT-15 and in the experiment with MOLT-4 was under 10% in each case.

For `N#CCc1nc2c(c(=O)[nH]1)C(c1ccc(Cl)cc1)C1=C(CCCC1)N2` (centres undefined), the inhibition of growth at 10 µM with M14 is under 10%; in the experiment on LOX IMVI, under 10%; in the experiment on SNB-75, 20.4%; in the experiment with SF-295 it was under 10%; in the experiment with OVCAR-4, under 10%; in the experiment with IGROV-1 it was under 10%. Also, the inhibition of growth at 10 µM with MDA-MB-468 is under 10%; in the experiment with Hs-578T, under 10%; in the experiment on MDA-MB-231 it was under 10%; in the experiment with MCF7, under 10%; in the experiment with PC-3, under 10%; with UO-31, 37.7%. Besides, the inhibition of growth at 10 µM in the experiment with TK-10 was under 10%; in the experiment with RXF 393, under 10%; in the experiment with CAKI-1, under 10%; in the experiment on ACHN, 13.8%; with 786-0 it was under 10%; with SK-OV-3, under 10%. Also, the inhibition of growth at 10 µM in the experiment with OVCAR-8, in the experiment on SF-268, in the experiment on KM12, in the experiment with HCT-15 and in the experiment on MOLT-4 was under 10% each time.

`CN(C)c1ccc(-c2nc3c(c(=O)[nH]2)C(c2ccc(Cl)cc2)C2=C(CCCC2)N3)cc1` (centres undefined): the inhibition of growth at 10 µM in the experiment with M14 was under 10%; in the experiment on LOX IMVI, under 10%; in the experiment with SNB-75, 12%; in the experiment on SF-295, under 10%; with OVCAR-4 it was under 10%; in the experiment with IGROV-1, under 10%. The inhibition of growth at 10 µM in the experiment with MDA-MB-468 is under 10%; in the experiment with Hs-578T, under 10%; with MDA-MB-231, 12%; in the experiment on MCF7 it was under 10%; in the experiment on PC-3 it was under 10%; in the experiment on UO-31, 47.4%. For the same molecule, the inhibition of growth at 10 µM in the experiment on TK-10 is under 10%; in the experiment with RXF 393, under 10%; with CAKI-1, under 10%; in the experiment on ACHN, 13.1%; in the experiment on 786-0, under 10%; in the experiment on SK-OV-3, under 10%. Besides, the inhibition of growth at 10 µM in the experiment on OVCAR-8, in the experiment with SF-268, in the experiment with KM12, in the experiment on HCT-15 and in the experiment with MOLT-4 was under 10% in each case.

On to `COc1ccc(-c2nc3c(c(=O)[nH]2)C(c2ccc(Cl)cc2)C2=C(CCCC2)N3)cc1OC` (centres undefined), for which the inhibition of growth at 10 µM with M14 is under 10%; in the experiment with LOX IMVI, under 10%; with SNB-75, 11.2%; in the experiment on SF-295 it was under 10%; in the experiment with OVCAR-4, under 10%; with IGROV-1, under 10%. The inhibition of growth at 10 µM with MDA-MB-468 was under 10%; with Hs-578T, under 10%; with MDA-MB-231 it was 12.6%; with MCF7, 13.5%; in the experiment on PC-3, 12.5%; in the experiment with UO-31 it was 41.7%. The inhibition of growth at 10 µM in the experiment on TK-10, in the experiment on RXF 393, in the experiment on CAKI-1, in the experiment with ACHN, with 786-0 and in the experiment on SK-OV-3 was under 10% throughout. Moreover, the inhibition of growth at 10 µM in the experiment on OVCAR-8, in the experiment on SF-268, with KM12, in the experiment with HCT-15 and with MOLT-4 was under 10% in each case.

Take `COc1ccc(C2C3=C(CCCC3)Nc3nc(-c4ccc(N(C)C)cc4)[nH]c(=O)c32)cc1OC` (centres undefined): the inhibition of growth at 10 µM in the experiment with M14, with LOX IMVI, in the experiment on SNB-75, in the experiment on SF-295, in the experiment with OVCAR-4 and with IGROV-1 was under 10% each time. The inhibition of growth at 10 µM was 10.8% with MDA-MB-468; under 10% in the experiment on Hs-578T; under 10% in the experiment with MDA-MB-231; under 10% in the experiment on MCF7; 11.4% in the experiment on PC-3; 29.4% with UO-31. Moreover, the inhibition of growth at 10 µM is under 10% in the experiment with TK-10; under 10% in the experiment with RXF 393; 10.5% in the experiment with CAKI-1; under 10% with ACHN; under 10% with 786-0; under 10% with SK-OV-3. Moreover, the inhibition of growth at 10 µM in the experiment on OVCAR-8, with SF-268, with KM12, in the experiment with HCT-15 and in the experiment on MOLT-4 was under 10% in each case.

Consider `COc1ccc(C2C3=C(CCCC3)Nc3ncn4nc(-c5ccc(O)cc5)nc4c32)cc1OC` (centres undefined), for which the inhibition of growth at 10 µM with M14 was under 10%; in the experiment on LOX IMVI, under 10%; in the experiment on SNB-75, 19.1%; in the experiment on SF-295, under 10%; in the experiment with OVCAR-4 it was under 10%; with UACC-62 it was under 10%. Besides, the inhibition of growth at 10 µM with IGROV-1 is under 10%; with MDA-MB-468 it was 21.4%; in the experiment with Hs-578T, under 10%; in the experiment on MDA-MB-231, 12.8%; with MCF7 it was under 10%; with PC-3, under 10%. Further, the inhibition of growth at 10 µM in the experiment with UO-31 was 29.3%; in the experiment on TK-10, under 10%; in the experiment on RXF 393, under 10%; in the experiment with CAKI-1, under 10%; in the experiment with ACHN it was under 10%; in the experiment with 786-0, under 10%. Also, the inhibition of growth at 10 µM is under 10% in the experiment on SK-OV-3; under 10% in the experiment on OVCAR-8; under 10% in the experiment on SF-268; under 10% in the experiment on KM12; under 10% in the experiment with HCT-15; 12.3% in the experiment on MOLT-4.

The values are drawn from ChEMBL document CHEMBL3045802, “Synthesis and in vitro antitumor activity of new quinoline, pyrimido[4,5-b]quinoline, [1,2,3]triazino[4,5-b]quinoline, and [1,2,4]triazolo[2,3:3,4]pyrimido[6,5-b]quinoline analogs” (2013).
